We go through 3 compounds from paper PMC7450492 (Molecular cancer therapeutics, 2020).

The term IC50 denotes the concentration needed to halve the response being measured.

In data set [1] the test system is LLC tumors. The data set can be described thus: LLC tumors in Syk^MC-KO mice. The class given is in vivo, mouse.
The test system of data set [2] is LLC tumors. The data set can be described thus: LLC syngeneic tumor in WT mice. As to conditions: for infiltration of CD8+ T cells in LLC tumors: treated LLC tumors. The class given is in vivo.
In a further data set the test system is B16-OVA tumor. The data set can be described thus: B16-OVA tumor in C57BL/6 mice. The class given is in vivo, mouse.
The next data set has as its system LLC cells. The data set can be described thus: viability of LLC cells. The class given is cell-based, mouse.
The subject of another data set is T cells. The data set can be described thus: T cell proliferation ex vivo. The format is cell-based, mouse.
The subject of the next data set is LLC tumor. The data set is described as follows: LLC tumor with macrophage depletion by anti-CSF1R. The format is in vivo, mouse. As to conditions: macrophage depleted mice.
For data set [3], the system named is immunosuppressive gene expression in MΦ. The data set is described as follows: immunosuppressive MΦ polarization, gene expression. The format is cell-based. As to conditions: very low dose, compared to IPI-549 or R488 alone.
A further data set is described as follows: solubility in water. The format is physicochemical.
Another data set concerns p-AKT. The data set can be described thus: p-AKT blockade. The class given is cell-based. As to conditions: 10 µM conc.
The nature of a further data set: metabolic stability. The class given is in vitro ADME.
The test system of data set [4] is PI3K isoforms p110α, p110β, p110γ and p110δ. The data set can be described thus: cell free enzymatic inhibition of PI3K isoforms. The format is biochemical. The following applies: in vitro.
A short description of data set [5]: PK in mice, i.v. and oral. The following applies: prototype formulation, preliminary. The class given is in vivo, mouse.
A further data set has as its target Syk (Homo sapiens, UniProt P43405). The data set can be described thus: cell free enzymatic inhibition of Syk. The class given is biochemical. As to conditions: read-out: Syk inhibitory activity IC50; cell free system.
The test system of another data set is CT26 tumor. The data set is described as follows: CT26 tumor in NSG or Balb/c mice. The class given is in vivo, mouse.

Values after ≈ are worked out from the molar mass of the structure shown. “Also recorded” adds a separate entry of the source.

For the compound `C[C@H](NC(=O)c1c(N)nn2cccnc12)c1cc2cccc(C#Cc3cnn(C)c3)c2c(=O)n1-c1ccccc1` [IPI549], the “LLC tumor growth in Syk^MC-KO mice” value with LLC tumors [1] was “significantly decreased”.
As to `COc1cc(Nc2ncc(F)c(Nc3ccc4c(n3)N(COP(=O)(O)O)C(=O)C(C)(C)O4)n2)cc(OC)c1OC` [R788, Fostamatinib], the “tumor growth and metastasis” value in the data set on LLC tumors [2] (LLC, WT mice, 40 mg/kg R788 orally, vs vehicle) is recorded as “significantly suppressed”. Also, the “infiltration of CD8+ T cells in LLC tumors” value in the data set with LLC tumors [2] is on record as “increased infiltration”. Further, in the data set with B16-OVA tumor (B16-OVA, H-2K^b SIINFEKL tetramers), the “OVA specific CD8+ T cells in tumor draining lymph nodes” value is on record as “increased”. In addition, the B16-OVA tumor growth entry in the data set on B16-OVA tumor (C57BL/6 mice, R788 40 mg/kg, anti-PDL1 200µg, 40 mg/kg) is “significantly blocked tumor growth; also recorded: substantially inhibited”. Moreover, in the data set on LLC cells, the “viability of LLC cells” value is given as “no effect”. The “LLC tumor growth in Syk^MC-KO mice” value in the data set on LLC tumors [1] is on record as “didn’t show additive reduction”. In the data set on T cells, the T cell proliferation result is “no effect”. For the same compound, in the data set with LLC tumor, the “LLC tumor growth, combination with anti-CSF1R (CD115) antibody” value is given as “no additive effects”.
Regarding `Cc1nn(-c2ccnc(Nc3ccc(-c4csc5c(=O)cc(N6CCOCC6)oc45)cc3)n2)cc1CN1CCC1` [SRX3207], the “toxicity in tumor-bearing mice” value in the data set with LLC tumors [2] (10 mg/kg dose) was “without toxicity”. In addition, the “LLC tumor growth and survival” value in the data set on LLC tumors [2] (10 mg/kg oral, WT mice, compared to IPI549 and R788 at similar doses) was “blocked tumor growth and increased survival effectively”. For the same compound, the “infiltration of CD8+ T cells in LLC tumors” value in the data set on LLC tumors [2] is “increased infiltration”. The immunosuppressive gene expression result in [3] is “potently blocks”. In the data set “solubility in water”, this compound registered a solubility in water of 43 µM (≈ 23.9 µg/mL). In the data set on p-AKT, the p-AKT blockade result was “able to block”. In addition, in the data set “metabolic stability”, the CLint is recorded as 74 µL/min/mg protein. Besides, in data set [4], the PI3K inhibitory potency result is “acceptable PI3K inhibitory properties”. For the same compound, the half-life result in [5] (5mg/kg IV and 15 mg/kg PO) was “about 5 hours”. Besides, the bioavailability entry in data set [5] (oral 15 mg/kg PO vs 5mg/kg IV) is “around 2%”. Further, in the data set on LLC tumors [1], the “LLC tumor growth in Syk^MC-KO mice” value was “significantly decreased”. For the same compound, the T cell proliferation result in the data set on T cells is listed as “didn’t affect”. The IC50 on Syk came out at 30 nM. In addition, the “LLC tumor growth, combination with anti-CSF1R (CD115) antibody” value in the data set with LLC tumor is “no additive effects”. Besides, the “CT26 tumor growth in Balb/c mice” value in the data set with CT26 tumor (Balb/c mice) was “blocked tumor growth”. Also, the “CT26 tumor growth in NSG mice” value with CT26 tumor (NSG mice) was “didn’t block”.
